Consider one compound from patent publication US11760733B2, “Small molecule regulators of mitochondrial fusion and methods of use thereof” (Washington University, priority 2017, dated 2023).

In one series the target is P-gp/MDR1 (Homo sapiens, UniProt P08183). Kind of series: P-gp/MDR1 transport. It is filed as in vitro ADME.
Series [1] can be described thus: In vivo pharmacokinetics in mice. Also noted: species or system mouse. To be noted: 2 hours after IM administration, 1 mg/kg. On the procedure:
(A) Three mice each were administered 1 mg/kg agonist IV, IP, or IM. Graphs are mean plasma concentration for each administration route. (B) Results for individual mice were administered 1 mg/kg indicated agonist IM.

Series [2] in a line: Parallel artificial membrane permeability assay (PAMPA). It is filed as in vitro ADME. (PAMPA measures passive passage across an artificial lipid membrane.)

Chain of P-gp/MDR1 (P08183 whole entry): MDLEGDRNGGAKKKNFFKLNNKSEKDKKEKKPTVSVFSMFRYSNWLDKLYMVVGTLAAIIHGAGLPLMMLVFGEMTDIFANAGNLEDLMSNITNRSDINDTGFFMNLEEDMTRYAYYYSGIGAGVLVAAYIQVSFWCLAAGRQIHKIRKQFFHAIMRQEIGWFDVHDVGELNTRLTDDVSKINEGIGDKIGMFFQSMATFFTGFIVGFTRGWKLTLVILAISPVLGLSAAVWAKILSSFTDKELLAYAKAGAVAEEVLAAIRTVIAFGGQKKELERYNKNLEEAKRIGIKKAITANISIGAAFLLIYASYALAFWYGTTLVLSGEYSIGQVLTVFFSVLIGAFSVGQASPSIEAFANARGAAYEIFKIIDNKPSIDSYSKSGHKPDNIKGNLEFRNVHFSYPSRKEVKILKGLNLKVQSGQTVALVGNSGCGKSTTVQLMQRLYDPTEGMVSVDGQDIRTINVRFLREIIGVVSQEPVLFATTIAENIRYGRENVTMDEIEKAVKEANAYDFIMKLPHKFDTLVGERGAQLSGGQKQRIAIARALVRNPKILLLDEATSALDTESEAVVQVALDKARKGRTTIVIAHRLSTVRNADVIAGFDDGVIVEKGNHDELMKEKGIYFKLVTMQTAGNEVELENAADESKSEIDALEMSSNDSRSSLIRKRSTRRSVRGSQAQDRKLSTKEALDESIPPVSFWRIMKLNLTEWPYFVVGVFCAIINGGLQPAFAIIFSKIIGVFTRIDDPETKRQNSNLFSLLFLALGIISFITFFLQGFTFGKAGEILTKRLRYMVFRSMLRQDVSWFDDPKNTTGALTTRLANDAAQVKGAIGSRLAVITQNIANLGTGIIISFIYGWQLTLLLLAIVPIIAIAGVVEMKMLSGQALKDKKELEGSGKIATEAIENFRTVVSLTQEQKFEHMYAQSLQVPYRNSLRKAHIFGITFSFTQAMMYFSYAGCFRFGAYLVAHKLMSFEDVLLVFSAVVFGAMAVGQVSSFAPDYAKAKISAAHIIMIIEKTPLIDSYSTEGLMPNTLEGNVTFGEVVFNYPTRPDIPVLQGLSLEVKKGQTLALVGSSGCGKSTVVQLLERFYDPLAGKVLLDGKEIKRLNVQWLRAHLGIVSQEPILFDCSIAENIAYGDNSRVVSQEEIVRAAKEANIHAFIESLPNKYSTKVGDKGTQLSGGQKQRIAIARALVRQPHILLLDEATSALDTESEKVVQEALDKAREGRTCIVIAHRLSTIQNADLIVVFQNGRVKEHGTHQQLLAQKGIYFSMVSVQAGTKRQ

For the compound `CC1CCCCC1NC(=O)NCCCc1nnc(C2CC2)n1-c1ccccc1` (stereo not drawn) [Regeneurin-C, 1-(3-(5-cyclopropyl-4-phenyl-4H-1,2,4-triazol-3-yl)propyl)-3-(2-methylcyclohexyl)urea], the “P-gp/MDR1 transport, in words” value on P-gp/MDR1 was “actively transported by P-gp/MDR1”. In addition, in series [1], the “total plasma drug concentration” value is recorded as “undetectable”. Further, the “passive diffusion across lipid-infused artificial membrane (PAMPA), in words” value in series [2] is “excellent passive diffusion”.
